{"source": "patent US20070254288A1", "about": "“Diagnostic methods for pain sensitivity and chronicity and for tetrahydrobiopterin-related disorders” (The General Hospital Corporation, priority 2005, published 2007)", "key": {"[1]": {"system": "cultured adult rat DRG neurons", "assay": "Calcium imaging (fura-2) in cultured adult rat DRG neurons", "format": "cell-based", "experimental": "Miniature EPSCs were recorded at −70 mV by whole cell patch clamp in adult rat transverse spinal cord slices (Baba et al., Mol Cell Neurosci 24:818-830 (2003)). Intracellular [Ca]I was measured fluorometrically (ΔF 340/380) in cultured adult DRG neurons loaded with fura-2. 6R-BH4 (0.3-10 μM), DEA-NONOate (50 μM), and L-NAME (10-100 μM) were applied using a multibarrel fast drug delivery system."}, "Sprague Dawley rats [2]": {"system": "Sprague Dawley rats", "assay": "Nociceptive thresholds in naïve animals (von Frey, radiant heat)", "format": "in vivo, rat", "experimental": "(§1) Animals were fully habituated and experiments performed blinded. Threshold for eliciting a withdrawal reflex to graded strength monofilament von Frey hairs (0.0174-20.9 g) was measured to assess mechanical allodynia. To measure cold allodynia, a drop of acetone was applied to the plantar hindpaw, and the time the animal spent licking, shaking or lifting the paw was measured (Tegeder et al., J Neurosci 24:1637-1645 (2004)). Paw withdrawal latency to radiant heat (lamp with 8 V, 50 W) assessed heat evoked pain (Ugo Basile).\n(§2) DAHP was dissolved in 1:1 polyethylene glycol (PEG400) and 1×PBS, pH 7.4 (15 mg/ml) and administered i.p. or intrathecally (250 μg/kg/h; 5 μl/h). For all i.t. injections/infusions a spinal catheter (Recathco) was used and implanted as described (Kunz et al., Pain 110:409-418 (2004)). Infusions with an osmotic pump (Alzet). 6R-BH4 in ACSF was injected i.t. (10 μg, single 10 μl injection). N-acetyl-serotonin in 1×PBS pH 7.4 containing 3% ethanol was delivered by i.t. infusion (100 μg/kg/h; 5 μl/h). Control animals received the appropriate vehicle. All drugs from Sigma-Aldrich."}, "Sprague Dawley rats [3]": {"system": "Sprague Dawley rats", "assay": "Spared nerve injury (SNI) model: mechanical (von Frey) and cold (acetone) allodynia", "format": "in vivo, rat", "settings": "SNI", "experimental": "(§3) Adult male Sprague Dawley rats (150-200 g, Charles River Laboratories) were used. For the SNI model two branches of the sciatic nerve, the common peroneal and the tibial nerve, were ligated and sectioned distally. For the CCI model the sciatic nerve was constricted with three Dexon 4/0 ligatures. For the SNL model, the L5 spinal nerve was tightly ligated. All surgical procedures were under isoflurane anesthesia. For the Formalin test 50 μl of 5% formaldehyde solution were injected into a hindpaw and flinches were counted per minute up to 60 min. Paw inflammation was induced with 50 μl complete Freund's adjuvant (CFA) injected into a hindpaw. Nociceptive analysis was done blinded, and animals were fully habituated to the room and test cages. Mechanical allodynia was assessed with graded strength monofilament von Frey hairs (0.0174-20.9 gram, log scaled), cold allodynia with the acetone test and heat hyperalgesia with the Hargreaves test. Drugs (Sigma) were injected intraperitoneally or intrathecally through a spinal catheter, osmotic pumps were used for infusion. Control animals received vehicle. L4/5 DRG and spinal cord tissue was processed for QRT-PCR, Western blotting, in situ hybridization and immunofluorescence studies.\nas §1, §2\nData are means ±SEM. The number of animals per group was 9-12. Areas under the “effect versus time” curves (AUC) were calculated using the linear trapezoidal rule and compared with Student's t-test or univariate analysis of variance (ANOVA) with subsequent t-tests employing a Bonferroni alpha-correction for multiple comparisons. All other data were analyzed with univariate ANOVA or ANOVA for repeated measurements. P at 0.05 for all tests."}, "[4]": {"system": "BH4 synthesis (GTP cyclohydrolase activity)", "assay": "Tissue concentrations of neopterin and biopterin in L4/5 DRGs (LC/MS-MS)", "format": "in vivo, rat", "settings": "seven days after SNI", "experimental": "Homogenized tissue was oxidized with iodine, and pteridines were extracted on Oasis MCX cartridges. Concentrations of total biopterin, neopterin, and the internal standard rhamnopterin were determined by LC/MS-MS. LC analysis under gradient conditions on a Nucleosil C8 column; MS-MS analyses on an API 4000 Q TRAP triple quadrupole mass spectrometer. Precursor-to-product ion transitions of m/z 236→192 for biopterin, m/z 252→192 for neopterin, m/z 265→192 for rhamnopterin were used for the MRM. Linearity from 0.1-50 ng/ml. The coefficient of correlation for all measured sequences was at least 0.99. The intra-day and inter-day variability was <10%."}, "Sprague Dawley rats [5]": {"system": "Sprague Dawley rats", "assay": "CFA-induced paw inflammation: thermal hyperalgesia (Hargreaves)", "format": "in vivo, rat", "settings": "single dose 50 mg/kg i.p.; 50 mg/kg", "experimental": "as §3, with “Drugs (Sigma) were injected intraperitoneally or intrathecally through a spinal catheter, osmotic pumps were used for infusion. Control animals received vehicle. L4/5 DRG and spinal cord tissue was processed for QRT-PCR, Western blotting, in situ hybridization and immunofluorescence studies.” left out\nFor the Formalin test 50 μl of 5% formaldehyde solution were injected into one hindpaw and flinches were counted per minute up to 60 min. […]\nas §1\nData are means ±SEM. […] Areas under the “effect versus time” curves (AUC) were calculated using the linear trapezoidal rule and compared with Student's t-test or univariate analysis of variance (ANOVA) with subsequent t-tests employing a Bonferroni alpha-correction for multiple comparisons. All other data were analyzed with univariate ANOVA or ANOVA for repeated measurements. […]"}, "[6]": {"assay": "Observation of general well-being, body weight, gait, activity", "format": "in vivo, rat", "settings": "100 μg/kg/hr i.t. after SNI"}, "biopterin": {"system": "biopterin", "assay": "Forskolin stimulation of whole blood from healthy volunteers: biopterin", "format": "cell-based, human", "settings": "10 μM, 24 h", "from_the_text": "FIGS. 14C-14F show the effect of forskolin on patient white blood cells. […] White bars unstimulated; grey after stimulation. […] Results represent means with SEM."}}, "note": "“Also recorded” adds a separate entry of the source. Counter-ions that a name gives are not always drawn."}
{"molecule": "C[C@H](O)[C@H](O)[C@H]1CNc2nc(N)[nH]c(=O)c2N1", "note": "[6R-BH4, (6R)-5,6,7,8-tetrahydrobiopterin dihydrochloride]", "values": [{"measurement": "recorded cells with increased intracellular calcium", "setting": "[1]; 0.3-10 μM, n=95", "value": 67, "unit": "%"}, {"measurement": "latency of pain production", "setting": "Sprague Dawley rats [2]; rat, in vivo", "value": "< 30", "unit": "min"}]}
{"molecule": "CCN(CC)/[N+]([O-])=N/O.CCNCC", "note": "[DEA-NONOate]", "values": [{"measurement": "intracellular calcium increase", "setting": "[1]; 50 μM, n=32, compared with BH4", "value": "produced similar increases"}]}
{"molecule": "COC(=O)[C@@H](N)CCCNC(=N)N[N+](=O)[O-]", "note": "[L-NAME]", "values": [{"measurement": "BH4 mediated increase in [Ca2+]I", "setting": "[1]; 50 μM", "value": "significantly reduced the BH4 mediated increase"}, {"measurement": "DEA-NONOate induced increase of [Ca2+]I", "setting": "[1]; L-NAME 50 μM, DEA-NONOate 50 μM", "value": "has no effect"}, {"measurement": "reduction of the BH4 effect on intracellular calcium", "setting": "[1]; n=29, p<0.01", "value": "47±4", "unit": "%"}, {"measurement": "mechanical and cold allodynia", "setting": "Sprague Dawley rats [3]; 25 mg/kg i.p., 25 mg/kg", "value": "significant effects for von Frey and acetone responses; also recorded: reduced SNI-evoked mechanical and cold allodynia"}]}
{"molecule": "CC(=O)NCCc1c[nH]c2ccc(O)cc12", "note": "[NAS, N-acetyl-serotonin]", "values": [{"measurement": "total biopterin levels in L4/5 DRGs", "setting": "[4]", "value": "reduced biopterin levels; also recorded: significantly reduces total biopterin levels"}, {"measurement": "thermal hyperalgesia", "setting": "Sprague Dawley rats [5]", "value": "significantly reduces thermal hyperalgesia"}, {"measurement": "mechanical and cold allodynia", "setting": "Sprague Dawley rats [3]; 100 μg/kg/h i.t. infusion 14 days", "value": "significantly reduced mechanical and cold allodynia; also recorded: significantly reduces nerve-injury evoked mechanical and cold allodynia"}, {"measurement": "overt adverse effects", "setting": "[6]", "value": "without overt adverse effects"}]}
{"molecule": "C=C[C@@]1(C)CC(=O)[C@]2(O)[C@@]3(C)[C@@H](O)CCC(C)(C)[C@@H]3[C@H](O)[C@H](OC(C)=O)[C@@]2(C)O1", "note": "[forskolin]", "values": [{"measurement": "biopterin increase in whole blood", "setting": "biopterin; homozygous carriers of the haplotype", "value": 20, "unit": "%"}, {"measurement": "biopterin increase in whole blood", "setting": "biopterin; non-carriers", "value": "about 60%"}]}
{"molecule": "Nc1nc2ncc([C@H](O)[C@H](O)CO)nc2c(=O)[nH]1", "note": "[neopterin]", "values": [{"measurement": "mechanical and thermal pain sensitivity", "setting": "Sprague Dawley rats [2]; naïve rats, i.t. 10 μg, 10 μl", "value": "had no effect on mechanical and thermal pain sensitivity; also recorded: had no significant effect"}]}
